Literature values, collected in patent US7589137B2, “Resin composition and molded product obtained therefrom” (Sony Corporation, priority 2005, dated 2009).

Details: safety to a living body

Structure (SMILES): Cc1cc(O)nc(O)n1 [6-methyluracil]
- LD50: 64500 mg/kg

Structure (SMILES): O=c1cc[nH]c(=O)[nH]1 [Uracil, uracil]
- LD50: several
